Data: patent US10370355B2, “Tetrahydroisoquinoline derivatives” (UCB Biopharma SPRL, priority 2016, dated 2019)

Biological target: T1, dopamine D1 receptor (Homo sapiens, UniProt P21728)
T1 construct: host or cells: LMtk (Ltk-) mouse fibroblast cells
Test: cAMP HTRF potentiation assay (presence of EC20 dopamine)
Format: cell-based
Conditions: potentiation of cAMP in presence of EC20 dopamine (1.1 nM); LMtk (Ltk-) mouse fibroblast cells expressing the dopamine D1 receptor
Description: The present assay allows to measure respectively the effects of compounds of the Examples in the absence of dopamine (“activation assay”) and the effects of compounds of the Examples in the presence of dopamine (“potentiation assay”).
The potentiation assay measures the ability of compounds to increase the levels of cAMP produced by a low-threshold concentration of dopamine. The concentration of dopamine used ([EC20]) is designed to produce 20% stimulation compared to the maximal response (100%) seen with increasing the concentration of dopamine. To measure this potentiation we incubate increasing concentrations of the compound with the [EC2O] of dopamine and measure the potentiation as increases in cAMP production. The pEC50 of a compound is the −log 10 of the concentration of the compound which produces 50% of the potentiation of the cAMP levels and the Erel is the relative efficacy, defined as the maximal % potentiation produced by the compound compared to the maximal response produced by increasing concentrations of dopamine (Erel of 1=dopamine maximum response).
Cells were cultured at 37° C. in a humidified atmosphere of 5% CO2. Cells were grown in DMEM-F12+GlutaMAX™-I medium (GIBCO®, Invitrogen, Merelbeke, Belgium) containing 10% fetal bovine serum (BioWhittaker®, Lonza, Verviers, Belgium), 400 μg/mL Geneticin (GIBCO®), 100 IU/mL Penicillin and 100 IU/mL Streptomycin (Pen-Strep solution, BioWhittaker®).
The measurement of changes in intracellular cyclic adenosinemonophopshpate (cAMP) was determined using the HTRF cAMP dynamic assay kit from CisBio (Codolet, France). Using homogenous time-resolved fluoresence technology, the assay is based on competition between native cAMP produced by cells and cAMP labelled with the dye d2. The tracer binding is determined by an anti-cAMP antibody labeled with cryptate. The effects of the compound alone (agonism) was determined by performing the assay in the absence of dopamine, whilst the effect of the compound as a positive allosteric modulator (PAM) was determined in the presence of an EC20 concentration of dopamine. Cells (20,000 per well) are incubated in 384 plates for 1 hour at room temperature in a final volume of 20 μLHBSS (Lonza, with calcium, magnesium and HEPES buffer 20 mM, pH 7.4) containing: isobutyl methylxanthine (Sigma, 0.1 mM final), varying concentrations of test compound (typically […] to 10^−4.5M) in the presence and absence of dopamine (1.1 nM final). The reaction is then terminated and the cells lysed by adding the d2 detection reagent in lysis buffer (10 microL) and the cryptate reagent in lysis buffer (10 microl) according to manufacturer's instructions. This is then incubated for a further 60 min at room temperature and changes in HTRF fluorescent emission ratio determined according to manufacturer's instructions using an Envision plate reader (Perkin Elmer, Zaventem, Belgium) with laser excitation. All incubations were performed in duplicate and results were compared to a concentration-effect curve to dopamine. (10^−11M to 10^−6M).
Data was analyzed using Excel and PRISM (GraphPad Software) to obtain pEC50 and Erel using the 4-parameter logistic equation (DeLean et al, 1978) where Erel is the fitted maximal response of the test compound minus basal expressed as a percentage relative to that obtained with dopamine which was defined as 100%.

T1 sequence (P21728 whole entry): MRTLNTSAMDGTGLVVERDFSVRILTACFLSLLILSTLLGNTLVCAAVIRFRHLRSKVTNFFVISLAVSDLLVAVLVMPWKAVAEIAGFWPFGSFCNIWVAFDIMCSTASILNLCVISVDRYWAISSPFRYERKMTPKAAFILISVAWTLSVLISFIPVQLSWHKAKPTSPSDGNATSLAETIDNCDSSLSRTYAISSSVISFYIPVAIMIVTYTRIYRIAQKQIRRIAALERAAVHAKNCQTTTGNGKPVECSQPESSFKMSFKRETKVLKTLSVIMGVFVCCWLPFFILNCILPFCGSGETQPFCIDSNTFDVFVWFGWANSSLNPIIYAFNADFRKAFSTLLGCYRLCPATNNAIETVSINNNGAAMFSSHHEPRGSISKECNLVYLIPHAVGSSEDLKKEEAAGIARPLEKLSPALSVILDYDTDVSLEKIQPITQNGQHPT

- EC50: ≤ 31.6 nM
Compound: C[C@H]1c2cccc([C@H](O)C(F)F)c2CCN1C(=O)Cc1c(Cl)ccn2ncc(Cl)c12 [Example 30, 2-(3,5-dichloropyrazolo[1,5-a]pyridin-4-yl)-1-[(1S)-5-[(1S)-2,2-difluoro-1-hydroxy-ethyl]-1-methyl-3,4-dihydro-1H-isoquinolin-2-yl]ethanone]
